# Results taken from US12583851B2, “Heteroaryl-substituted pyrazine derivatives as pesticides” (Elanco Animal Health GmbH, priority 2019, dated 2026).
# Legend:
# Format in all cases: in vivo
# [1] = system: larvae of the banded cucumber beetle (Diabrotica balteata); experiment: Diabrotica balteata spray test; details: 168 h, after 7 days, read-out: efficacy (seedling growth); for pest or weed control at 6.4 µg/disc, 20 g/ha: 20 g/ha (=6.4 μg/well); for pest or weed control at 32 µg/disc, 100 g/ha: 100 g/ha (=32 μg/well)
# Procedure, shortened: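 Efficacy was read 7 days after infesting each unit with 10–20 banded cucumber beetle larvae, as % of seedlings growing like untreated, uninfested controls. Before infestation, wheat seeds germinated 1 day on agar (5 per well) were sprayed with the active ingredient. The active was formulated in acetone/DMF and diluted in water containing emulsifier.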
# [2] = system: larvae of the southern green stink bug (Nezara viridula); experiment: Nezara viridula spray test; details: 96 h, 500 g/ha, barley plants, after 4 days
# Procedure: Nezara viridula—Spray Test
# Solvent: 78.0 parts by weight of acetone • • 1.5 parts by weight of dimethylformamide
# (§1) Emulsifier: alkylarylpolyglycol ether
# (§2) To produce a suitable preparation of active compound, 1 part by weight of active compound is mixed with the stated amount of solvent, and the concentrate is diluted with water, containing an emulsifier concentration of 1000 ppm, to the desired concentration. Further test concentrations are prepared by dilution with emulsifier containing water.
# Barley plants (Hordeum vulgare) infested with larvae of the southern green stink bug (Nezara viridula) are sprayed with a test solution containing the desired concentration of the active ingredient.
# After 4 days mortality in % is determined. 100% means all the stink bugs have been killed; 0% means none of the stink bugs have been killed.
# [3] = system: fall armyworm larvae (Spodoptera frugiperda); experiment: Spodoptera frugiperda spray test; details: 168 h, maize leaf sections, after 7 days
# Procedure, shortened: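 Percent larval kill read at day 7, from 0% (no caterpillars dead) to 100% (all dead). Larvae were placed on dried Zea mays leaf discs previously sprayed with test preparations made from an acetone/DMF solution diluted in 1000 ppm emulsifier-containing water.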
# [4] = system: adult cat fleas (Ctenocephalides felis); experiment: Ctenocephalides felis in-vitro contact test, adult cat flea; details: after 48 hours, read-out: efficacy (fleas dead or moribund); for pest or weed control at 1 µg/cm2, 100 g/ha: 1 μg/cm^2 (=100 g/ha); for pest or weed control at 5 µg/cm2, 500 g/ha: 5 μg/cm^2 (=500 g/ha)
# Procedure: Ctenocephalides felis—In-Vitro Contact Tests Adult Cat Flea
# (§3) 9 mg compound is solved in 1 ml acetone and diluted with acetone to the desired concentration. 250 μL of the test solution is filled in 25 mL glass test tubes and homogeneously distributed on the inner walls by rotation and tilting on a shaking device (2 h at 30 rpm). With a compound concentration of 900 ppm, an inner surface of 44.7 cm^2 and a homogeneous distribution, a dose of 5 μg/cm^2 is achieved.
# (§4) After the solvent has evaporated, each test tube is filled with 5-10 adult cat fleas (Ctenocephalides felis), closed with a perforated lid and incubated in a lying position at room temperature and relative humidity. After 48 hours efficacy is determined. The fleas are patted on the ground of the tubes and are incubated on a heating plate at 45-50° C. for at most 5 minutes Immotile or uncoordinated moving fleas, which are not able to escape the heat by climbing upwards, are marked as dead or moribund.
# An efficacy of 100% means all fleas are dead or moribund; 0% means no fleas are dead or moribund.
# [5] = system: adult brown dog ticks (Rhipicephalus sanguineus); experiment: Rhipicephalus sanguineus in-vitro contact test, adult brown dog ticks; details: 48 h, after 48 hours, read-out: efficacy (ticks dead or moribund); for pest or weed control at 1 µg/cm2, 100 g/ha: 1 μg/cm^2 (=100 g/ha); for pest or weed control at 5 µg/cm2, 500 g/ha: 5 μg/cm^2 (=500 g/ha)
# Procedure: Rhipicephalus sanguineus—In-Vitro Contact Tests with Adult Brown Dog Ticks
# as §3, with “mL” for “ml”, “[…]” for “250 μL”
# as §4, with “brown dog ticks (Rhipicephalus sanguineus),” for “cat fleas (Ctenocephalides felis),”, “ticks” for “fleas”, “ticks,” for “fleas,”
# An efficacy of 100% means all ticks are dead or moribund; 0% means no ticks are dead or moribund.
# [6] = system: Rhipicephalus (Boophilus) microplus larvae (strain Parkhurst, resistant against synthetic pyrethroids); experiment: Rhipicephalus (Boophilus) microplus in-vitro contact test, larval cattle tick; details: after 48 hours, read-out: efficacy (larvae dead or moribund); for pest or weed control at 1 µg/cm2, 100 g/ha: 1 μg/cm^2 (=100 g/ha); for pest or weed control at 5 µg/cm2, 500 g/ha: 5 μg/cm^2 (=500 g/ha)
# Procedure, shortened: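 Pyrethroid-resistant larvae (strain Parkhurst), 20–50 per tube, exposed by contact to a dried acetone film of compound (5 μg/cm² at 900 ppm) for 48 h at 27 °C and 85% humidity. Percent dead or moribund larvae scored from negative geotactic behaviour.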
# [7] = system: green peach aphid (Myzus persicae); experiment: Myzus persicae spray test; details: foliar, 120 h, Chinese cabbage leaf disks, after 5 days
# Procedure: Myzus persicae—Spray Test
# Solvent: 78.0 parts by weight acetone • 1.5 parts by weight dimethylformamide
# as §1
# as §2, with “solvents” for “solvent,”, “and” for “and the concentrate”
# Chinese cabbage (Brassica pekinensis) leaf disks infected with all instars of the green peach aphid (Myzus persicae), are sprayed with a preparation of the active ingredient of the desired concentration.
# After 5 days mortality in % is determined. 100% means all aphids have been killed and 0% means none of the aphids have been killed.
# [8] = system: adult engorged female ticks (Rhipicephalus microplus); experiment: Rhipicephalus (Boophilus) microplus injection test; details: 168 h, 4 μg/animal, egg deposition after 7 days, read-out: efficacy (infertile eggs)
# Procedure: Rhipicephalus (Boophilus) microplus—Injection Test
# (§5) Solvent: dimethyl sulfoxide
# To produce a suitable preparation of active compound, 10 mg of active compound are dissolved in 0.5 mL solvent, and the concentrate is diluted with solvent to the desired concentration.
# Five adult engorged female ticks (Rhipicephalus microplus) are injected with 1 μL compound solution into the abdomen. The ticks are transferred into replica plates and incubated in a climate chamber.
# After 7 days egg deposition of fertile eggs is monitored. Eggs where fertility is not visible are stored in a climate chamber till hatching after about 42 days. An efficacy of 100% means all eggs are infertile; 0% means all eggs are fertile.
# [9] = system: adult unfed cat fleas (Ctenocephalides felis); experiment: Ctenocephalides felis oral test; details: 48 h, 100 ppm in citrated cattle blood, after 2 days
# Procedure: Ctenocephalides felis—Oral Test
# as §5
# To produce a suitable preparation of active compound, 10 mg of active compound are dissolved in 0.5 mL solvent, and the concentrate is diluted with citrated cattle blood to the desired concentration.
# Approximately 20 adult unfed cat fleas (Ctenocephalides felis) are placed in a flea chamber whose top and bottom is covered with gauze. A chamber whose bottom is sealed with parafilm, is filled with the blood-compound solution and placed on top of the flea chamber, so that the fleas can suck the blood. The blood chamber is heated to 37° C. whereas the flea chamber is kept at room temperature.
# After 2 days mortality in % is determined. 100% means all the fleas have been killed; 0% means none of the fleas have been killed.
SMILES,"pest or weed control at 6.4 µg/disc, 20 g/ha [1] [%]","pest or weed control at 32 µg/disc, 100 g/ha [1] [%]",mortality at 500 g/ha [2] [%],mortality at 100 g/ha [3] [%],"pest or weed control at 1 µg/cm2, 100 g/ha [4] [%]","pest or weed control at 5 µg/cm2, 500 g/ha [4] [%]","pest or weed control at 1 µg/cm2, 100 g/ha [5] [%]","pest or weed control at 5 µg/cm2, 500 g/ha [5] [%]","pest or weed control at 1 µg/cm2, 100 g/ha [6] [%]","pest or weed control at 5 µg/cm2, 500 g/ha [6] [%]",mortality at 100 g/ha [7] [%],pest or weed control at 0.004 mg [8] [%],mortality at 100 ppm [9] [%]
"CC(NC(=O)c1cc(Cl)cc(OC(F)(F)F)c1)c1nccnc1-n1cc(C(=O)N(C)CC2CC2)cn1 (racemic) [Example I-133, (rac)-1-(3-{1-[3-Chloro-5-(trifluoromethoxy)benzamido]ethyl}pyrazin-2-yl)-N-(cyclopropylmethyl)-N-methyl-1H-pyrazole-4-carboxamide]",100,100,100,100,100,100,100,100,100,100,–,–,–
"CC(NC(=O)c1cc(Cl)cc(S(C)(=O)=O)c1)c1nccnc1-n1cc(Cl)cn1 (racemic) [Example I-99, (rac)-3-Chloro-N-{1-[3-(4-chloro-1H-pyrazol-1-yl)pyrazin-2-yl]ethyl}-5-(methanesulfonyl)benzamide]",–,–,100,–,–,–,–,–,–,–,–,–,–
"CCN(C)C(=O)c1cnc(-c2nccnc2[C@@H](C)NC(=O)c2cc(C(F)(F)F)cc(C(F)(F)F)c2)s1 [Example I-84, 2-(3-{(1R)-1-[3,5-bis(trifluoromethyl)benzamido]ethyl}pyrazin-2-yl)-N-ethyl-N-methyl-1,3-thiazole-5-carboxamide]",–,–,–,–,–,–,–,–,–,–,90,–,–
"CCN(C)C(=O)c1cnc(-c2ncc(C)nc2[C@H](C)NC(=O)c2cc(C(F)(F)F)cc(C(F)(F)F)c2)s1 [Example I-155, (+)-2-(3-{(1S)-1-[3,5-Bis(trifluoromethyl)benzamido]ethyl}-5-methylpyrazin-2-yl)-N-ethyl-N-methyl-1,3-thiazole-5-carboxamide]",100,100,100,100,–,–,–,–,–,–,–,–,–
"CC(NC(=O)c1cc(C(F)(F)F)cc(C(F)(F)F)c1)c1nccnc1-n1cc(C(=O)N(C)C2CC2)cn1 (racemic) [Example I-139, (rac)-1-(3-{1-[3,5-Bis(trifluoromethyl)benzamido]ethyl}pyrazin-2-yl)-N-cyclopropyl-N-methyl-1H-pyrazole-4-carboxamide]",–,80,100,100,–,–,–,–,100,100,–,–,–
"CC(NC(=O)c1cc(Cl)cc(S(C)(=O)=O)c1)c1nccnc1-n1cc(C(F)(F)F)cn1 (racemic) [Example I-93, (rac)-3-Chloro-5-(methanesulfonyl)-N-[1-{3-[4-(trifluoromethyl)-1H-pyrazol-1-yl]pyrazin-2-yl}ethyl]benzamide]",100,100,100,100,–,–,–,80,100,100,–,–,–
"CC(NC(=O)c1cc(C(F)(F)F)cc(C(F)(F)F)c1)c1nccnc1-n1cc(C(=O)N(C)CC2CC2)cn1 (racemic) [Example I-131, (rac)-1-(3-{1-[3,5-Bis(trifluoromethyl)benzamido]ethyl}pyrazin-2-yl)-N-(cyclopropylmethyl)-N-methyl-1H-pyrazole-4-carboxamide]",100,100,100,100,–,–,80,80,100,100,–,–,–
COc1ccc(-c2nccnc2C(C)NC(=O)c2cc(Cl)cc(OC(F)(F)F)c2)nc1 (centres unmarked) [Example I-28],100,80,–,–,–,–,–,–,90,80,90,–,–
"CC(NC(=O)c1cncc(C(F)(F)F)c1)c1nccnc1-c1nccs1 (racemic) [Example I-2, (rac)-N-(1-(3-(Thiazol-2-yl)pyrazin-2-yl)ethyl)-5-(trifluoromethyl)nicotinamide]",–,–,–,–,–,–,–,100,–,–,–,100,90
"CC(NC(=O)c1cc(C(F)(F)F)cc(C(F)(F)F)c1)c1nccnc1-c1ncc(C(=O)N(C)CC(F)(F)F)s1 (racemic) [Example I-65, (rac)-2-(3-{1-[3,5-Bis(trifluoromethyl)benzamido]ethyl}pyrazin-2-yl)-N-methyl-N-(2,2,2-trifluoroethyl)-1,3-thiazole-5-carboxamide]",–,–,–,100,100,100,–,80,100,100,–,80,80
CC(NC(=O)c1cc(C(F)(F)F)cc(C(F)(F)F)c1)c1nccnc1-c1ccccn1 (centres unmarked) [Example I-13],100,80,–,100,–,–,–,–,100,100,–,80,90
